Laboratory results: patent publication US20250382296A1, “NITROGEN-CONTAINING FUSED THREE RING PRMT5 INHIBITOR, AND PREPARATION METHOD THEREFOR AND PHARMACEUTICAL USE THEREOF” (Abbisko Therapeutics Co., Ltd., priority 2022, published 2025)

Columns and labels:
[1] = test system: HCT 116 wild-type MTAP cells; test: Inhibition of proliferation of HCT116 wild-type MTAP cells (CellTiter-Glo, 6 days); assay type: cell-based; settings: Homo sapiens, HCT-116, 144 h
Experimental: (§1) 1. HCT 116 MTAP-knockout cells and HCT 116 wild-type MTAP cells were plated in 96-well flat-bottom plates and cultured overnight at 37° C. and […] in McCoy's 5A medium containing 10% fetal bovine serum+1% penicillin-streptomycin.
(§2) 2. The next day, compounds were each dissolved in DMSO, diluted successively with DMSO and medium and then transferred to cell plates; the final concentration of each compound was 10 μM, 4-fold dilution was performed to obtain 9 concentration points, and a DMSO control was provided.
(§3) 3. Cells not treated with compound were subjected to CellTiter-Glo Luminescent Cell Viability Assay (Promega) to detect the cell viability, and reference was made to the kit instructions for the operation; the plates were then placed on an EnVision Multilabel Reader to detect luminescence signals.
(§4) 4. Meanwhile, the cell plates containing cells treated with compounds were cultured continuously at 37° C. and […] CO2 for 6 days.
(§5) 5. Then, the cell viability was also detected by CellTiter-Glo.
(§6) 6. Finally, dose response curves were plotted using the four parameter dose response curve module of GraphPad Prism v 9.2.0 software and proliferation inhibition IC50 (unit: nM) was calculated.

[2] = test system: HCT 116 MTAP-knockout cells; test: Inhibition of proliferation of HCT116 MTAP-knockout cells (CellTiter-Glo, 6 days); assay type: cell-based, human; settings: for IC50: Homo sapiens, HCT-116, 144 h, proliferation inhibition, HCT116 MTAP-knockout, 6 days, CellTiter-Glo; for Selectivity: IC50 HCT116 wild-type cells / IC50 HCT116 MTAP-knockout cells
Experimental: as §1, §2, §3, §4, §5, §6

| IC50 [1] | IC50 [2] | Structure (SMILES) | Selectivity [2] |
| --- | --- | --- | --- |
| 0.33 µM | 0.006 µM | Nc1nc2cc(F)c(C(=O)N(Cc3ccc(C(F)(F)F)cn3)CC3CC3)cc2n2cncc12 [Example 163, 4-amino-N-(cyclopropylmethyl)-7-fluoro-N-((5-(trifluoromethyl)pyridin-2-yl)methyl)imidazo[1,5-a]quinoxaline-8-carboxamide] | 55 |
| 0.358 µM | 0.011 µM | Nc1nc2cc(Cl)c(C(=O)N(Cc3ccc(C(F)(F)F)cn3)CC3CC3)cc2n2cncc12 [Example 165, 4-amino-7-chloro-N-(cyclopropylmethyl)-N-((5-(trifluoromethyl)pyridin-2-yl)methyl)imidazo[1,5-a]quinoxaline-8-carboxamide] | 32.5 |
| 1.33 µM | 0.019 µM | Cn1cc(N(C(=O)c2cc3c(cc2Cl)nc(N)c2cncn23)[C@@H]2COc3nc(C(F)(F)F)ccc32)cn1 [Example 211a, (S)-4-amino-7-chloro-N-(1-methyl-1H-pyrazol-4-yl)-N-(6-(trifluoromethyl)-2,3-dihydrofuro[2,3-b]pyridin-3-yl)imidazo[1,5-a]quinoxaline-8-carboxamide] | 69.9 |
| 0.523 µM | 0.005 µM | CCn1cc(N(C(=O)c2ccc3nc(N)c4cncn4c3c2)[C@@H]2COc3cc(C(F)(F)F)ccc32)cn1 [Example 208a, (S)-4-amino-N-(1-ethyl-1H-pyrazol-4-yl)-N-(6-(trifluoromethyl)-2,3-dihydrobenzofuran-3-yl)imidazo[1,5-a]quinoxaline-8-carboxamide] | 104.6 |
| 1.88 µM | 0.035 µM | Cc1cc2nc(N)c3cnc(C)n3c2cc1C(=O)N(Cc1ccc(C(F)(F)F)cn1)CC1CC1 [Example 169, 4-amino-N-(cyclopropylmethyl)-1,7-dimethyl-N-((5-(trifluoromethyl)pyridin-2-yl)methyl)imidazo[1,5-a]quinoxaline-8-carboxamide] | 53.6 |
| 1.61 µM | 0.01 µM | Nc1nc2ccc(C(=O)N(Cc3ccc(C(F)(F)F)nn3)CC3CC3)cc2n2cncc12 [Example 156, 4-amino-N-(cyclopropylmethyl)-N-((6-(trifluoromethyl)pyridazin-3-yl)methyl)imidazo[1,5-a]quinoxaline-8-carboxamide] | 160.7 |
| 1.32 µM | 0.015 µM | Cc1cc2nc(N)c3cncn3c2cc1C(=O)N(Cc1ccc(C(F)(F)F)nn1)CC1CC1 [Example 213, 4-amino-N-(cyclopropylmethyl)-7-methyl-N-((6-(trifluoromethyl)pyridazin-3-yl)methyl)imidazo[1,5-a]quinoxaline-8-carboxamide] | 87.9 |
| 0.096 µM | 0.006 µM | CC(C1CC1)N(Cc1ccc(C(F)(F)F)cn1)C(=O)c1ccc2nc(N)c3cnn(C)c3c2c1 (stereo not drawn) [Comparative compound 3, reference compound] | 16 |
| 2.06 µM | 0.022 µM | Nc1nc2ccc(C(=O)N(Cc3ccc(C(F)(F)F)cn3)CC3CC3)cc2n2cncc12 [Example 144, 4-amino-N-(cyclopropylmethyl)-N-((5-(trifluoromethyl)pyridin-2-yl)methyl)imidazo[1,5-a]quinoxaline-8-carboxamide] | 93.5 |
| 4.99 µM | 0.115 µM | Nc1nc2ccc(C(=O)N(Cc3ccc(C(F)(F)F)cn3)C3CCC3)cc2n2cncc12 [Example 147, 4-amino-N-cyclobutyl-N-((5-(trifluoromethyl)pyridin-2-yl)methyl)imidazo[1,5-a]quinoxaline-8-carboxamide] | 43.4 |
| 0.725 µM | 0.012 µM | Cn1cc(N(C(=O)c2ccc3nc(N)c4cncn4c3c2)C2COc3cc(C(F)(F)F)ccc32)cn1 (stereo not drawn) [Example 30, 4-amino-N-(1-methyl-1H-pyrazol-4-yl)-N-(6-(trifluoromethyl)-2,3-dihydrobenzofuran-3-yl)imidazo[1,5-a]quinoxaline-8-carboxamide] | 60.4 |
| > 10 µM | 0.188 µM | CN(C(=O)c1ccc2nc(N)c3cncn3c2c1)C1COc2cc(-c3cnn(C)c3)ccc21 (stereo not drawn) [Example 214, 4-amino-N-methyl-N-(6-(1-methyl-1H-pyrazol-4-yl)-2,3-dihydrobenzofuran-3-yl)imidazo[1,5-a]quinoxaline-8-carboxamide] | >53.1 |
| 1.07 µM | 0.024 µM | CC(C1CC1)N(Cc1ccc(C(F)(F)F)cn1)C(=O)c1ccc2nc(N)c3cncn3c2c1 (stereo not drawn) [Example 145, 4-amino-N-(1-cyclopropylethyl)-N-((5-(trifluoromethyl)pyridin-2-yl)methyl)imidazo[1,5-a]quinoxaline-8-carboxamide] | 44.8 |
| 0.0783 µM | 0.0355 µM | CC(c1ncccn1)N(Cc1ccc(C(F)(F)F)cn1)C(=O)c1ccc2nc(N)c3[nH]ncc3c2c1 (stereo not drawn) [Comparative compound 2, reference compound] | 2.2 |
| 1.08 µM | 0.011 µM | Nc1nc2ccc(C(=O)N(c3cn[nH]c3)[C@@H]3COc4cc(C(F)(F)F)ccc43)cc2n2cncc12 [Example 216, (S)-4-amino-N-(1H-pyrazol-4-yl)-N-(6-(trifluoromethyl)-2,3-dihydrobenzofuran-3-yl)imidazo[1,5-a]quinoxaline-8-carboxamide] | 98.3 |
| 7.57 µM | 0.108 µM | Cc1cc2nc(N)c3cncn3c2cc1C(=O)N(C)Cc1ccc(C(F)(F)F)cn1 [Example 230, 4-amino-N,7-dimethyl-N-((5-(trifluoromethyl)pyridin-2-yl)methyl)imidazo[1,5-a]quinoxaline-8-carboxamide] | 70.1 |
| 0.059 µM | 0.001 µM | Cn1cc(N(C(=O)c2cc3c(cc2Cl)nc(N)c2cncn23)[C@@H]2COc3cc(C(F)(F)F)ccc32)cn1 [Example 210a, (S)-4-amino-7-chloro-N-(1-methyl-1H-pyrazol-4-yl)-N-(6-(trifluoromethyl)-2,3-dihydrobenzofuran-3-yl)imidazo[1,5-a]quinoxaline-8-carboxamide] | 59 |
| 0.085 µM | 0.006 µM | C[C@H](c1ncccn1)N(Cc1ccc(C(F)(F)F)cn1)C(=O)c1ccc2nc(N)c3cnn(C)c3c2c1 [Comparative compound 4, reference compound] | 14.2 |
| 2.71 µM | 0.074 µM | Cc1ncc2c(N)nc3ccc(C(=O)N(Cc4ccc(C(F)(F)F)cn4)CC4CC4)cc3n12 [Example 167, 4-amino-N-(cyclopropylmethyl)-1-methyl-N-((5-(trifluoromethyl)pyridin-2-yl)methyl)imidazo[1,5-a]quinoxaline-8-carboxamide] | 36.6 |
| > 10 µM | 0.322 µM | Cc1cc2nc(N)c3cncn3c2cc1C(=O)N1CC[C@@H](C)C[C@@H]1c1ccc2scnc2c1 [Example 226, (4-amino-7-methylimidazo[1,5-a]quinoxalin-8-yl)((2R,4R)-2-(benzo[d]thiazol-5-yl)-4-methylpiperidin-1-yl)methanone] | >31 |
